Data set [1] is described as follows: Plasma pharmacokinetics after a single IV dose in mice. Format: in vivo. The following applies: male C57BL/6J mice, LC-MS/MS. As to the method: The C5aR1 peptide antagonist concentrations were quantified by a previously developed and validated LC–MS/MS method. Briefly, the LC–MS/MS system consisted of an API 3200 (AB SCIEX) triple quadrupole LC–MS/MS mass spectrometer coupled with an Agilent 1200 series HPLC system (Agilent Technologies, Santa Clara CA, USA). For sample processing, 10 µL of the solution containing the C5aR1 peptide antagonist was mixed with 10 µL of internal standard (AcF-[OPdChaWR]) dissolved in solvent (ACN) followed by sample processing, extraction, supernatant isolation, drying, and reconstitution in a 75% methanol-in-water solution. A small volume of processed sample (approximately 50 µL) was used for the LC–MS measurement. The autosampler was set at 4 °C and the column oven temperature was maintained in the range of 25 ± 1 °C. The system control and data acquisition were executed by Analyst software (AB SCIEX, Applied Biosystems Inc., Framingham, MA, USA, version 1.5.1). Chromatographic separation was implemented using a Kinetex EVO C18 analytical column (100 mm × 2.1 mm, 100 Å, 5 µm, Phenomenex Inc., Torrance, CA, USA) under binary gradient conditions using mobile phase A (milliQ water containing 0.1% formic acid) and mobile phase B (acetonitrile containing 0.1% formic acid) with a variable flow rate, as described in Kumar et al..
The plasma pharmacokinetic (PK) profile and biodistribution of peptide-loaded nanoparticles (1 mg/kg equivalent dose of free peptide) vs. free peptide were assessed in mice after intravenous (IV; via tail vein) dosing. Serial blood samples were collected via a tail vein using a microsampling technique. Blood samples were collected at 0.04, 0.25, 0.5, 0.75, 1, 1.5, […], 4, 6, and 24 h for both groups and then 48, 72, 96, and 120 h for the nanoparticle group. The blood samples were centrifuged at 2000× g for 10 min at 4 °C, and the separated plasma samples (10 µL) were collected, diluted with 100 µL of milliQ water and 10 µL of internal standard, filtered through Microcon®-10 centrifugal filters (Merck, Melbourne, VIC, Australia) to separate nanoparticles from released peptide, and stored at −80 °C until time of analysis. For tissue distribution, on the terminal day, i.e., day 1 for native peptide and day 5 for the nanoparticle group, animals were transcardially perfused using PBS solution to remove circulatory peptide/formulation, and tissue samples were collected, processed as described in our previously published method, and filtered as mentioned above.
On the day of analysis, samples were processed for C5aR1 peptide antagonist concentrations using the above-mentioned LC–MS/MS method as described previously. […]

Data set [2] can be described thus: Solubility of the peptide in water. The format is physicochemical. The settings on record: method not described.
For data set [3] the following is noted: mice, cited from earlier work. From the text:
The hexapeptide, phenylpropanoic acid-[ornithine-proline-d-cyclohexylalanine-tryptophan-arginine] (HC-[OPdChaWR]) is an antagonist of the C5a receptor 1 (C5aR1) of the innate immune complement cascade.

The structures appear in SMILES notation. Values after ≈ are worked out from the molar mass of the structure shown. Values joined by “and” are separate entries in the source; they are usually repeats but may differ in a detail not shown here. Identical values can stand only once. Bridge positions count the residues as written; N and C are the ends. Square brackets hold non-standard residues; d marks the D form. Peptide text beside a SMILES is read from it. * marks the point of attachment. Hydrocinnamoyl = O=C(CCc1ccccc1)*; dCha = N[C@H](CC1CCCCC1)C(=O)O; Orn = NCCC[C@H](N)C(=O)O

Take `N=C(N)NCCC[C@@H]1NC(=O)[C@H](Cc2c[nH]c3ccccc23)NC(=O)[C@@H](CC2CCCCC2)NC(=O)[C@@H]2CCCN2C(=O)[C@@H](NC(=O)CCc2ccccc2)CCCNC1=O` [HC-[OPdChaWR], phenylpropanoic acid-[ornithine-proline-d-cyclohexylalanine-tryptophan-arginine]] (Hydrocinnamoyl-[Orn]P[dCha]WR; lactam 1-C): in data set [1] (single IV 1 mg/kg peptide equivalent, plasma), the “time for which plasma peptide levels are measurable after dosing” value was “unmeasurable after 6 h post-dosing”. Besides, in data set [1] (mouse, single IV 1 mg/kg peptide equivalent, plasma, two-compartmental model, n = 4, read-out: mean residence time (MRT)), the MRT stood at 45.6 min. For the same molecule, the AUC(0-t) in data set [1] (mouse, single IV 1 mg/kg, plasma, linear trapezoidal rule, n = 4, read-out: systemic exposure (AUC0-t)) came out at 3830 ng·h/mL. For the same molecule, in data set [1] (mouse, single IV (tail vein) 1 mg/kg peptide equivalent, plasma filtered (Microcon-10) so released peptide is measured, two-compartmental model, n = 4, read-out: terminal elimination half-life (t1/2) (converted)), the half-life was 50.4 min. In data set [2], the solubility in water is 1000 µg/mL (≈ 1190 µM). In addition, in data set [3] (intravenous (IV) injection), the “plasma half-life in vivo” value was 10.2 min. The “t1/2 values reported previously” value in data set [3] (listed as free peptide) is 10.2 min and 19.8 min.

One may read the MRT as a mean duration of stay, worked out from the concentration-time curve.

The values above are taken from PMC8468767, “Optimisation of a Microfluidic Method for the Delivery of a Small Peptide” (Pharmaceutics, 2021).
